Reference: the supplement of paper PMC8671470

These compounds were tested on KU-812 (assay: cell viability (% survival relative to DMSO control, bortezomib = 0%); higher = less cytotoxic). Settings: 1000 nM; 72 h.
Summary of the method: (§1)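 Fifteen myeloid leukaemia cell lines were exposed to compounds at 1, 10, 100, 1000 or 10000 nM in 384-well plates for 72 h at 37 °C and 5% CO2. Viability was read by CellTiter-Glo luminescence and normalised, with vehicle as 100% and a 10 µM positive control as 0%. Values are percent survival averaged over duplicates.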

Q: How did the cell viability turn out when `OCCN(CCO)c1nc(N2CCCCC2)c2nc(N(CCO)CCO)nc(N3CCCCC3)c2n1` [Dipyridamole] was run?
A: The cell viability was 86.5%.

Q: With `Cc1cc(O)c2c(c1)C(=O)c1cc(O)cc(O)c1C2=O` [Emodin] as the compound, how does the cell viability read?
A: The cell viability was 89.8%.

Q: `N#Cc1ccc(C2CCCc3cncn32)cc1` (centres undefined) [Fadrozole] was tested. Which cell viability did it give?
A: The cell viability was 112%.

Q: With `Cc1nc(-c2ccc(OCC(C)C)c(C#N)c2)sc1C(=O)O` [Febuxostat] as the compound, how does the cell viability read?
A: Its cell viability is 98.4%.

Same assay, conditions: 10000 nM; 72 h

Q: Which cell viability does the source give for `CN(C)CCNC(=O)c1cccn2c(=O)c3cc4ccccc4cc3nc12` [Bmh-21] here?
A: Its cell viability is -0.163%.

Q: `C=C1C(=O)O[C@H](CCCCCCCC)[C@H]1C(=O)O` [C75] was tested. Which cell viability did it give?
A: The cell viability was 106%.

Q: With `O=C(Cc1cccc(OC(F)(F)F)c1)Nc1ccc(CCCCc2nnc(NC(=O)Cc3ccccn3)s2)nn1` [CB-839] as the compound, how does the cell viability read?
A: Its cell viability is 66.4%.

Q: `O=NN(CCCl)C(=O)NCCCl` [Carmustine] was tested. Which cell viability did it give?
A: Its cell viability is 97.1%.

Q: Which cell viability does the source give for `O[C@H]1[C@H](O)[C@@H](O)CN2CC[C@H](O)[C@H]12` [Castanospermine] here?
A: The cell viability was 94.6%.

Q: Which cell viability does the source give for `O=C(/C=C/c1cccnc1)NCCCCC1CCN(C(=O)c2ccccc2)CC1` [Daporinad] here?
A: The cell viability was 4.77%.

Q: For `N=C(N)c1ccc(N=NNc2ccc(C(=N)N)cc2)cc1` [Diminazene], which cell viability is on record?
A: The cell viability was 85.7%.

Q: For `OCCN(CCO)c1nc(N2CCCCC2)c2nc(N(CCO)CCO)nc(N3CCCCC3)c2n1` [Dipyridamole], which cell viability is on record?
A: Its cell viability is 69.4%.

Q: For `Cc1cc(O)c2c(c1)C(=O)c1cc(O)cc(O)c1C2=O` [Emodin], which cell viability is on record?
A: The cell viability was 80.8%.

Q: How did the cell viability turn out when `N#Cc1ccc(C2CCCc3cncn32)cc1` (centres undefined) [Fadrozole] was run?
A: The cell viability was 112%.

Q: For `Cc1nc(-c2ccc(OCC(C)C)c(C#N)c2)sc1C(=O)O` [Febuxostat], which cell viability is on record?
A: Its cell viability is 83.9%.

The compounds below were run on KG-1 in the same assay as above. Settings: 1 nM; 72 h.
Summary of the method: as §1

Q: How did the cell viability turn out when `CN(C)CCNC(=O)c1cccn2c(=O)c3cc4ccccc4cc3nc12` [Bmh-21] was run?
A: The cell viability was 104%.

Q: Which cell viability does the source give for `C=C1C(=O)O[C@H](CCCCCCCC)[C@H]1C(=O)O` [C75] here?
A: Its cell viability is 102%.

Q: Which cell viability does the source give for `O=C(Cc1cccc(OC(F)(F)F)c1)Nc1ccc(CCCCc2nnc(NC(=O)Cc3ccccn3)s2)nn1` [CB-839] here?
A: The cell viability was 98.4%.

Q: Which cell viability does the source give for `O=NN(CCCl)C(=O)NCCCl` [Carmustine] here?
A: Its cell viability is 110%.

Q: `O[C@H]1[C@H](O)[C@@H](O)CN2CC[C@H](O)[C@H]12` [Castanospermine] was tested. Which cell viability did it give?
A: Its cell viability is 120%.

Q: `O=C(/C=C/c1cccnc1)NCCCCC1CCN(C(=O)c2ccccc2)CC1` [Daporinad] was tested. Which cell viability did it give?
A: Its cell viability is 88%.

Q: With `N=C(N)c1ccc(N=NNc2ccc(C(=N)N)cc2)cc1` [Diminazene] as the compound, how does the cell viability read?
A: Its cell viability is 115%.

Q: `OCCN(CCO)c1nc(N2CCCCC2)c2nc(N(CCO)CCO)nc(N3CCCCC3)c2n1` [Dipyridamole] was tested. Which cell viability did it give?
A: Its cell viability is 94.7%.

Q: `Cc1cc(O)c2c(c1)C(=O)c1cc(O)cc(O)c1C2=O` [Emodin] was tested. Which cell viability did it give?
A: The cell viability was 90.7%.

Q: With `N#Cc1ccc(C2CCCc3cncn32)cc1` (centres undefined) [Fadrozole] as the compound, how does the cell viability read?
A: Its cell viability is 108%.

Q: Which cell viability does the source give for `Cc1nc(-c2ccc(OCC(C)C)c(C#N)c2)sc1C(=O)O` [Febuxostat] here?
A: The cell viability was 102%.

Same assay, conditions: 10 nM; 72 h

Q: How did the cell viability turn out when `CN(C)CCNC(=O)c1cccn2c(=O)c3cc4ccccc4cc3nc12` [Bmh-21] was run?
A: Its cell viability is 101%.

Q: Which cell viability does the source give for `C=C1C(=O)O[C@H](CCCCCCCC)[C@H]1C(=O)O` [C75] here?
A: Its cell viability is 81.1%.

Q: Which cell viability does the source give for `O=C(Cc1cccc(OC(F)(F)F)c1)Nc1ccc(CCCCc2nnc(NC(=O)Cc3ccccn3)s2)nn1` [CB-839] here?
A: The cell viability was 81.7%.

Q: How did the cell viability turn out when `O=NN(CCCl)C(=O)NCCCl` [Carmustine] was run?
A: Its cell viability is 114%.

Q: Which cell viability does the source give for `O[C@H]1[C@H](O)[C@@H](O)CN2CC[C@H](O)[C@H]12` [Castanospermine] here?
A: The cell viability was 98.4%.

Q: With `O=C(/C=C/c1cccnc1)NCCCCC1CCN(C(=O)c2ccccc2)CC1` [Daporinad] as the compound, how does the cell viability read?
A: Its cell viability is 25.3%.

Q: `N=C(N)c1ccc(N=NNc2ccc(C(=N)N)cc2)cc1` [Diminazene] was tested. Which cell viability did it give?
A: The cell viability was 109%.

Q: For `OCCN(CCO)c1nc(N2CCCCC2)c2nc(N(CCO)CCO)nc(N3CCCCC3)c2n1` [Dipyridamole], which cell viability is on record?
A: The cell viability was 112%.

Q: `Cc1cc(O)c2c(c1)C(=O)c1cc(O)cc(O)c1C2=O` [Emodin] was tested. Which cell viability did it give?
A: The cell viability was 89.7%.

Q: For `N#Cc1ccc(C2CCCc3cncn32)cc1` (centres undefined) [Fadrozole], which cell viability is on record?
A: The cell viability was 97.9%.

Q: `Cc1nc(-c2ccc(OCC(C)C)c(C#N)c2)sc1C(=O)O` [Febuxostat] was tested. Which cell viability did it give?
A: Its cell viability is 97.5%.

Same assay, conditions: 100 nM; 72 h

Q: How did the cell viability turn out when `CN(C)CCNC(=O)c1cccn2c(=O)c3cc4ccccc4cc3nc12` [Bmh-21] was run?
A: The cell viability was 104%.

Q: Which cell viability does the source give for `C=C1C(=O)O[C@H](CCCCCCCC)[C@H]1C(=O)O` [C75] here?
A: Its cell viability is 112%.

Q: With `O=C(Cc1cccc(OC(F)(F)F)c1)Nc1ccc(CCCCc2nnc(NC(=O)Cc3ccccn3)s2)nn1` [CB-839] as the compound, how does the cell viability read?
A: The cell viability was 80.1%.

Q: For `O=NN(CCCl)C(=O)NCCCl` [Carmustine], which cell viability is on record?
A: Its cell viability is 108%.

Q: How did the cell viability turn out when `O[C@H]1[C@H](O)[C@@H](O)CN2CC[C@H](O)[C@H]12` [Castanospermine] was run?
A: The cell viability was 116%.

Q: `O=C(/C=C/c1cccnc1)NCCCCC1CCN(C(=O)c2ccccc2)CC1` [Daporinad] was tested. Which cell viability did it give?
A: Its cell viability is 10.8%.

Q: With `N=C(N)c1ccc(N=NNc2ccc(C(=N)N)cc2)cc1` [Diminazene] as the compound, how does the cell viability read?
A: Its cell viability is 114%.

Q: `OCCN(CCO)c1nc(N2CCCCC2)c2nc(N(CCO)CCO)nc(N3CCCCC3)c2n1` [Dipyridamole] was tested. Which cell viability did it give?
A: The cell viability was 101%.

Q: `Cc1cc(O)c2c(c1)C(=O)c1cc(O)cc(O)c1C2=O` [Emodin] was tested. Which cell viability did it give?
A: The cell viability was 96.1%.

Q: `N#Cc1ccc(C2CCCc3cncn32)cc1` (centres undefined) [Fadrozole] was tested. Which cell viability did it give?
A: The cell viability was 89.5%.

Q: With `Cc1nc(-c2ccc(OCC(C)C)c(C#N)c2)sc1C(=O)O` [Febuxostat] as the compound, how does the cell viability read?
A: Its cell viability is 103%.

Same assay, conditions: 1000 nM; 72 h

Q: Which cell viability does the source give for `CN(C)CCNC(=O)c1cccn2c(=O)c3cc4ccccc4cc3nc12` [Bmh-21] here?
A: The cell viability was 9.79%.

Q: `C=C1C(=O)O[C@H](CCCCCCCC)[C@H]1C(=O)O` [C75] was tested. Which cell viability did it give?
A: Its cell viability is 115%.

Q: Which cell viability does the source give for `O=C(Cc1cccc(OC(F)(F)F)c1)Nc1ccc(CCCCc2nnc(NC(=O)Cc3ccccn3)s2)nn1` [CB-839] here?
A: The cell viability was 43%.

Q: For `O=NN(CCCl)C(=O)NCCCl` [Carmustine], which cell viability is on record?
A: The cell viability was 102%.

Q: Which cell viability does the source give for `O[C@H]1[C@H](O)[C@@H](O)CN2CC[C@H](O)[C@H]12` [Castanospermine] here?
A: The cell viability was 99.4%.

Q: With `O=C(/C=C/c1cccnc1)NCCCCC1CCN(C(=O)c2ccccc2)CC1` [Daporinad] as the compound, how does the cell viability read?
A: Its cell viability is 8.29%.

Q: How did the cell viability turn out when `N=C(N)c1ccc(N=NNc2ccc(C(=N)N)cc2)cc1` [Diminazene] was run?
A: The cell viability was 97.7%.

Q: How did the cell viability turn out when `OCCN(CCO)c1nc(N2CCCCC2)c2nc(N(CCO)CCO)nc(N3CCCCC3)c2n1` [Dipyridamole] was run?
A: The cell viability was 104%.

Q: `Cc1cc(O)c2c(c1)C(=O)c1cc(O)cc(O)c1C2=O` [Emodin] was tested. Which cell viability did it give?
A: The cell viability was 97.3%.

Q: `N#Cc1ccc(C2CCCc3cncn32)cc1` (centres undefined) [Fadrozole] was tested. Which cell viability did it give?
A: The cell viability was 110%.

Q: For `Cc1nc(-c2ccc(OCC(C)C)c(C#N)c2)sc1C(=O)O` [Febuxostat], which cell viability is on record?
A: Its cell viability is 94.6%.

Same assay, conditions: 10000 nM; 72 h

Q: With `CN(C)CCNC(=O)c1cccn2c(=O)c3cc4ccccc4cc3nc12` [Bmh-21] as the compound, how does the cell viability read?
A: Its cell viability is 0.81%.

Q: With `C=C1C(=O)O[C@H](CCCCCCCC)[C@H]1C(=O)O` [C75] as the compound, how does the cell viability read?
A: The cell viability was 114%.

Q: `O=C(Cc1cccc(OC(F)(F)F)c1)Nc1ccc(CCCCc2nnc(NC(=O)Cc3ccccn3)s2)nn1` [CB-839] was tested. Which cell viability did it give?
A: The cell viability was 45.4%.

Q: `O=NN(CCCl)C(=O)NCCCl` [Carmustine] was tested. Which cell viability did it give?
A: Its cell viability is 97.5%.

Q: For `O[C@H]1[C@H](O)[C@@H](O)CN2CC[C@H](O)[C@H]12` [Castanospermine], which cell viability is on record?
A: Its cell viability is 104%.
